For the assay, the system named is GAS. Conditions: tested with GAS.

This passage reports MBC and MIC results from US12447188B2, “Compositions and methods for the antiseptic treatment of biofilms on mammalian tissue” (Avadim Health IP, Inc., priority 2019, dated 2025).

In brackets after ≈: the same amount, converted by molar mass.

For orientation: MBC means the smallest concentration meeting the test's criterion for killing. A low value points to more potent killing. The term MIC denotes the lowest concentration that inhibits growth of the organism.

In turn, `CC[C@H](C)[C@H](NC(=O)[C@H](CCCCN)NC(=O)[C@H](CCC(=O)O)NC(=O)[C@H](CCCCN)NC(=O)[C@H](CO)NC(=O)[C@H](CCCCN)NC(=O)[C@H](CCCNC(=N)N)NC(=O)[C@H](Cc1ccccc1)NC(=O)[C@H](Cc1ccccc1)NC(=O)[C@H](CC(=O)O)NC(=O)CNC(=O)[C@H](CC(C)C)NC(=O)[C@@H](N)CC(C)C)C(=O)NCC(=O)N[C@@H](CCCCN)C(=O)N[C@@H](CCC(=O)O)C(=O)N[C@@H](Cc1ccccc1)C(=O)N[C@@H](CCCCN)C(=O)N[C@@H](CCCNC(=N)N)C(=O)N[C@H](C(=O)N[C@H](C(=O)N[C@@H](CCC(N)=O)C(=O)N[C@@H](CCCNC(=N)N)C(=O)N[C@H](C(=O)N[C@@H](CCCCN)C(=O)N[C@@H](CC(=O)O)C(=O)N[C@@H](Cc1ccccc1)C(=O)N[C@@H](CC(C)C)C(=O)N[C@@H](CCCNC(=N)N)C(=O)N[C@@H](CC(N)=O)C(=O)N[C@@H](CC(C)C)C(=O)N[C@H](C(=O)N1CCC[C@H]1C(=O)N[C@@H](CCCNC(=N)N)C(=O)N[C@H](C(=O)N[C@@H](CCC(=O)O)C(=O)N[C@@H](CO)C(=O)O)[C@@H](C)O)C(C)C)[C@@H](C)CC)C(C)C)[C@@H](C)CC` [Synthetic LL-37 peptide] displayed an MBC of 16 µM (≈ 71.9 µg/mL) and an MIC of 16 µM (≈ 71.9 µg/mL).
